Reference: US10022357B2, “Amyloid precursor protein MRNA blockers for treating Down syndrome and Alzheimer's disease” (THE GENERAL HOSPITAL CORPORATION, priority 2013, dated 2018)
Entries after “also recorded” stand apart in the source; their conditions may differ. Like-named read-outs stand apart in the source and are kept apart here.

Experiments:
[1] = system: APP and amyloid-beta; conditions: Table 2; Refs 27, 33; read-out: APP and amyloid-beta Inhibition (IC50); cited from earlier work
[2] = system: APP 5′UTR; format: cell-based, human
Experimental: The LDDN library had already yielded small molecules that inhibit mesangial cell proliferation, following three-dimensional pharmacophore modeling and screening. A second Molecular Libraries Screening Centers Network HTS was conducted at the Columbia University Genome Center to generate hits as listed on PUBCHEM (AID: 1285), from which the dose-response assays identified 50 lead APP 5′UTR-directed luciferase reporter inhibitors. […] These were directly measured and found not to inhibit luciferase enzyme activity. […] These thirteen leads were tricyclic aromatic compounds that included two major classes of hits: compounds with a benzimidazole backbone, i.e. APP blockers 2, −7, and −9 (JTR-009) and compounds with a benzothiazole backbone, i.e. APP blockers −8 and −13. The compounds with a benzothiazole backbone were also identified to be similar to PFTα, another benzothiazole, and P53 inhibitor, by showing protection against oxidative injuries in synaptosomes from wild-type mice and preserving presynaptic terminals in cultured hippocampal neurons exposed to etoposide).
APP 5′UTR-Luciferase inhibitor compounds obtained from the preliminary HTS of pIRES-APP-5′UTR transfectants were picked, and the dose-response assays were conducted at 0.1, 1.0, and 5.0 μM (based on the exact molecular weights of the compounds). […] Each hit was added in 5 wells, and this was repeated twice on 2 different days. There was a positive control and negative control column of cells as previously described.
To identify APP 5′UTR-specific translation blockers from LDDN Harvard (see ref [21]) and from the Columbia University Genome center, the inventors then counter-screened against the PrP 5′UTR and shortlisted thirteen potent inhibitors to be further characterized. In FIG. 1D, the listed constructs were employed to conduct these transfection based assays to ensure that the 13 APP specific leads were not also PrP inhibitors. Table 1 lists the IC50 of each of these inhibitors with respect to their dose-responsive capacity to reduce APP 5′UTR-driven luciferase expression relative to their IC50 values against PrP 5′UTR expression.

[3] = system: APP mRNA; format: cell-based, human
Experimental: (§1) qRT-PCR was conducted to measure the capacity of JTR-009 to change steady state levels of […] levels, as was previously described (see Ref [6]). Desferrioxamine treatment was used for a positive control to assess changes to the steady state levels of both APP mRNA and transferrin receptor mRNAs. Primers for β-actin were employed as a control for an mRNA previously shown to be unchanged by desferrioxamine and other inducers. Experiments were carried out on the ABI Prism 7000 sequence detection system (Applied Biosystems). […] The primers to β-actin, TfR1 were designed and ordered from Invitrogen. The APP primer set was purchased from Qiagen and has been benchmarked on several reports for accurate measurement of APP mRNA levels.

[4] = system: IRP1 binding to APP IRE; assay: Biotinylated RNA pulldown assay, IRP1 binding to APP IRE probe; set-up: species or system human
Experimental: (§2) Biotinylated RNA oligonucleotides: […] Paramagnetic streptavidin-conjugated Dynabeads (Invitrogen) were washed with ribonucleoprotein immunoprecipitation buffer, added into lysates to bind IRP(1/2)-biotinylated-RNA complexes, and incubated for 1 hour at room temperature. After five washes, the proteins that bound to the beads were analyzed by Western blotting for IRP1, IRP2, and biotin. […] The IREs-bound IRPs were quantified by Quantity One® software (Bio-Rad).

[5] = system: PrP 5′UTR; assay: cells; conditions: Homo sapiens, SH-SY5Y, read-out: IC50 to reduce 5′UTR driven luciferase expression in pIRES-PrP-5′UTR transfectants
[6] = system: α-synuclein (SNCA); assay: Western blot of α-synuclein levels in primary mouse neurons
Experimental: Primary cortical neurons from wild type mice and from the PAC-Tg(SNCA(wt) human SNCA genomic mice [22] were cultured as outlined by the method of Ray et al., 2009 [23]. The embryonic (E15-18) pups were recovered after sacrificing pregnant females, separated out the brain, and removed the meninges and blood vessels. The cortices were then dissected out and placed them in separate Eppendorf tubes containing 500 uL of HBSS without Ca+^2/Mg^+2 salts supplemented with 1 mM sodium pyruvate and 10 mM HEPES, pH 7.4. On ice, individual cells were isolated by titrating 10 times using a glass pasture pipette with the tip barely fire polished. The volume was adjusted to 1.5 mL, by adding 1 mL of HBSS with Ca^+2/Mg^+2 salts+Na. pyruvate+HEPES, restoring the divalent cations by adding HBSS so that the non-dispersed tissue could settle for 5 min, on ice. In the tissue culture laminar hood, the supernatant was transferred into a new 15 mL tube and centrifuged for 1 minute at 900 rpm, 4° C. The pellet was gently re-suspended in 2 mL of HBSS with Ca^+2/Mg^+2 salts+Na pyruvate+HEPES and took an aliquot for counting (2 mL for approx 5 embryos). The cells were then plated at ˜1×10^5 cells/well of a 24 well or 2×10^5/in 12 well plates. Each set of plates was coated with poly D-lysine containing poly L-lysine coverslips for micro immuncytochemical confirmation of neuronal integrity.
(§3) After cells were exposed to increasing concentrations of the compounds as outlined in each figure legend, cytoplasmic protein lysates were prepared by homogenizing the cells in midRIPA buffer (25 mM Tris pH 7.4, 1% NP40, 0.5% sodium deoxycholate, 15 mM NaCl, protease inhibitors, RNase inhibitor and 10 μM DTT). Western blotting for APP was performed using the N-terminal 22C11 antibody (Millipore, Inc) and the A8717 C-terminal specific APP antibody (Sigma, inc), while αsyn was detected using mouse monoclonal anti-αsyn (BD Transduction Laboratories) and anti-β-actin (Chemicon). […] The bands were quantified using QuantityOne® software (BioRad).

[7] = system: IRP1 and IRP2 binding to H-ferritin IRE; assay: Biotinylated RNA pulldown assay, IRP1/IRP2 binding to H-ferritin IRE probe; set-up: species or system human; conditions: same conditions as APP IRE pulldown
Experimental: as §2

[8] = system: APP; assay: Western blot of APP levels in primary mouse cortical neurons
Experimental: Primary cortical neurons from wild type mice and from the PAC-Tg(SNCA(wt) human SNCA genomic mice [22] were cultured as outlined by the method of Ray et al., 2009 [23]. The embryonic (E15-18) pups were recovered after sacrificing pregnant females, separated out the brain, and removed the meninges and blood vessels. The cortices were then dissected out and placed them in separate Eppendorf tubes containing 500 uL of HBSS without Ca+^2/Mg^+2 salts supplemented with 1 mM sodium pyruvate and 10 mM HEPES, pH 7.4. On ice, individual cells were isolated by titrating 10 times using a glass pasture pipette with the tip barely fire polished. […]
as §3

[9] = system: APP
Experimental: After cells were exposed to increasing concentrations of the compounds as outlined in each figure legend, cytoplasmic protein lysates were prepared by homogenizing the cells in midRIPA buffer (25 mM Tris pH 7.4, 1% NP40, 0.5% sodium deoxycholate, 15 mM NaCl, protease inhibitors, RNase inhibitor and 10 μM DTT). Western blotting for APP was performed using the N-terminal 22C11 antibody (Millipore, Inc) and the A8717 C-terminal specific APP antibody (Sigma, inc), while αsyn was detected using mouse monoclonal anti-αsyn (BD Transduction Laboratories) and anti-β-actin (Chemicon). The blots were developed using chemiluminescence (PIERCE, Rockford, Ill.) and visualized with a Phosphoimager (BioRad, Hercules, Calif.). The bands were quantified using QuantityOne® software (BioRad).

[10] = system: APP and amyloid-beta; format: cell-based; conditions: Table 2; printed in brackets as max; read-out: APP and amyloid-beta Inhibition (IC50), max
[11] = system: TfR mRNA; format: cell-based, human; conditions: iron chelation, 25 μM, positive control
Experimental: as §1

In the case of `CN1CC[C@]2(C)c3cc(OC(=O)Nc4ccccc4)ccc3N(C)[C@H]12` [posiphen, reference compound], the IC50 [1] is listed as 1 µM, the “increase of APP 5′UTR activity” value ([2]; 0.1 μM drug, matched conditions) is listed as 15% and the IC50 ([2]; FIG. 4A, dose response, N=4, read-out: IC50 to limit APP 5′UTR-luciferase expression) is listed as 5 µM.
In the case of `COc1cc(SC)ccc1C(=O)Nc1nc2ccccc2[nH]1` [BL-1], the “concentration to inhibit APP 5′UTR conferred translation, times less than strophanthidin” value ([2]; FIG. 8, relative to strophanthidin) is reported as 500 times.
In the case of `Cc1ccc2[nH]c(-c3ccc(N)cc3)nc2c1` [JTR-009, 4-(5-methyl-1H-benzimidazol-2yl) aniline], the “APP mRNA levels” value ([3]; 0.1 nM to 10 μM drug, N=4) is reported as “unchanged”, the “increase of APP mRNA levels” value ([3]; 100 μM) is reported as roughly 10% and the “reduction of IRP1 binding to biotinylated APP IRE RNA probes” value ([4]; 0.3 μM, N=7) is reported as 20%. For the same compound, the “fold reduction of IRP1 binding to the APP IRE” value ([4]; 3 μM, 48 hour exposure) was 2 fold, the “reduction of IRP1 binding to biotinylated APP IRE RNA probes” value ([4]; 3 μM, N=7) was 50% and the “IRP1 binding to biotinylated APP IRE RNA probes” value ([4]; 30 μM, N=7) was “completely inhibited”. The IC50 [5] was 4 µM, the “average pair-wise reduction of SNCA levels (threshold)” value ([6]; 0.001 μM, 48 hours) was 50% and the “α-synuclein (SNCA) levels” value ([6]; primary mouse neurons, same treatment as APP reduction) was “unchanged; also recorded: no significant changes”. For the same compound, the “IRP1/IRP2 binding to H-ferritin IRE probes” value [7] was “always maintained; also recorded: no inhibitory change”, the “reduction of APP levels” value ([8]; concentrations as low as 10 nM, primary mouse cortical neurons) was 60% and the “lowest dose that inhibited APP levels” value ([8]; primary mouse E-18 neurons) was 1 nM. The “concentration that limits APP translation” value [9] was “less than one”, the “reduction of APP in lysate supernatants of RNA pulldown” value ([9]; 3 μM) was 35% and the “reduction of APP (densitometry, β-actin standardized)” value ([9]; 20 μM, 48 hour treatment) was 50%. For the same compound, the “reduction of APP in lysate supernatants of RNA pulldown” value ([9]; 30 μM) was 70%, the “APP levels, percent of control levels” value ([9]; 30 μM, 48 hours, N=5) was 30% and the IC50 ([9]; read-out: IC50 for translational inhibition of APP, dose-responsive assays) was less than 1 µM. The IC50 [10] was 0.01 µM, the “reduction of APP 5′UTR activity” value ([2]; 0.1 μM drug, N=4) was “two-fold” and the IC50 ([2]; Homo sapiens, SH-SY5Y, 384-plate assays, inhibition curves, first IC50 line of Table 1, read-out: IC50 to reduce 5′UTR driven luciferase expression in pIRES-APP-5′UTR transfectants) was 0.4 µM. For the same compound, the IC50 ([2]; Homo sapiens, SH-SY5Y, FIG. 4A, dose response, N=4, read-out: IC50 to limit APP 5′UTR-luciferase expression) was 0.1 µM, the IC50 ([2]; Homo sapiens, SH-SY5Y, Table 2, read-out: APP 5′UTR Inhibition (IC50)) was 0.1 µM and the IC50 ([2]; Homo sapiens, SH-SY5Y, dose-responsive measurements, range, read-out: IC50 against the APP 5′UTR) was 0.001 to 0.1 µM. The “fold more potent/effective than posiphen to limit APP 5′UTR driven translation” value ([2]; relative to posiphen, listed as Formula I) was “about 10 fold”.
With `CC(=O)N(O)CCCCCNC(=O)CCC(=O)N(O)CCCCCNC(=O)CCC(=O)N(O)CCCCCN` [desferrioxamine, reference compound] the “APP mRNA levels” value ([3]; iron chelation with desferrioxamine) was “unchanged” and the “increase of transferrin receptor mRNA levels” value [11] was 2 fold.
